Reference: article PMC8151276, “An Integrated Approach toward NanoBRET Tracers for Analysis of GPCR Ligand Engagement” (Molecules, 2021)

Key:
Format in all cases: binding
[1] = target: T1, SSTR5 (Homo sapiens, UniProt P35346); assay: NanoBRET screen HiBiT-SSTR5 in HEK293; conditions: SSTR5
T1 construct: purchased Promega (in-house HiBiT-GPCR construct library, NanoBRET)
Method: (§1) Each tracer candidate was screened across the entire library of HiBiT-GPCR constructs using NanoBRET as the detection modality. As depicted in Figure 4A, the specificity of interactions was evaluated through decrease in BRET due to competitive displacement of a bound tracer by excess parental compound. Each tracer was analyzed for binding to each HiBiT-GPCR fusion in the absence and in the presence of competing parental compound. Briefly, HEK293 cells were transfected with HiBiT-GPCR constructs diluted into promoterless DNA to reduce expression and maximize translocation to the cell surface. Each tracer candidate was then screened at concentrations of 1 μM and 0.1 μM across cells expressing these fusions. Cells were treated for 1.5 h with tracer either alone or in the presence of 20 μM competing parental compound (i.e., control). BRET was measured upon addition of purified LgBiT and subsequent complementation with HiBiT genetically fused to a GPCR. The specificity of interactions was assessed through a decrease in BRET signal due to competitive displacement of the bound tracer. To further gauge the robustness of these interactions, the fold response over the control (i.e., BRETtracer/BRETcontrol) was calculated. We chose a 1.5-fold response, which translates to ≥7-fold signal over noise as the minimal threshold required to score an interaction as positive. […]. Below we highlight the screening results obtained for our exemplary fluorescent tracers based on Clozapine, Amitriptyline and AZD1283.
(§2) HiBiT-GPCR DNA constructs were diluted in 10 mM Tris pH 8 to a final concentration of 0.01 μg/μL, arrayed in 96-well plates and stored at −20 °C. For transfection, HEK293 cells were suspended in Opti-MEM (without phenol red) supplemented with 2% fetal bovine serum (Seradigm) and 100 units/mL penicillin–streptomycin (Gibco) at a final concentration of 220,000 cells/mL and dispensed into white 96-well plates at 90 μL/well. Subsequent transfections and screens were carried using an Agilent Bravo Automated Liquid Handling Platform. First, the 96-well HiBiT DNA arrays were diluted 25-fold in Opti-MEM (without serum or phenol red) to a final concentration of 0.0004 μg/μL and 20 μL of the diluted DNAs were transferred into new 96-well plates. Next, promoterless carrier DNA (1 μg/μL) was diluted 25-fold (0.04 μg/μL) and then dispensed into the diluted arrays at 20 μL/well. Following brief mixing, Viafect transfection reagent (Promega) diluted 16-fold into Opti-MEM was dispensed into the plates at 40 μL/well. After mixing by pipetting, plates were incubated for 10 min on the pipetting station deck. The DNA-transfection reagent complexes were then added to plates containing cells. To facilitate the screen, 10 μL of DNA-transfection reagent complexes were added in duplicates to the top 4 and bottom 4 rows, resulting in two identical 48-well arrays per plate. Plates with transfected cells were incubated for 18–20 h at 37 °C/5% CO2. A screen of each tracer across the entire library using two different concentrations requires duplicate plates of transfected cells. Depending on the number of tracers being screened, transfections can be scaled up using the same ratios. The next day, for each tracer, four 20× screening solutions in tracer dilution buffer (Promega) were prepared: two duplicates at final concentration of 20 μM and two duplicates at a final concentration of 2 μM. A competing unmodified compound was added to one of each duplicate at a final concentration of 400 μM. The four resulting solutions were diluted 4-fold in Opti-MEM without serum or phenol red to generate 5× solutions (5 µM and 0.5 µM tracer +/− 100 μM competing compound). To screen the library, a BioTek MultiFlo FX liquid dispenser was used to dispense 22.5 µL of tracer solution to the top 4 rows and 22.5 µL tracer + competing compound solution to the 4 bottom rows. Plates were briefly mixed on an orbital shaker and incubated for 1.5 h at room temperature. […]

[2] = target: T2, LHCGR (Homo sapiens, UniProt P22888); assay: NanoBRET screen HiBiT-LHCGR in HEK293; conditions: LHCGR
T2 construct: purchased Promega (in-house HiBiT-GPCR construct library, NanoBRET)
T2 sequence (P22888 27-699): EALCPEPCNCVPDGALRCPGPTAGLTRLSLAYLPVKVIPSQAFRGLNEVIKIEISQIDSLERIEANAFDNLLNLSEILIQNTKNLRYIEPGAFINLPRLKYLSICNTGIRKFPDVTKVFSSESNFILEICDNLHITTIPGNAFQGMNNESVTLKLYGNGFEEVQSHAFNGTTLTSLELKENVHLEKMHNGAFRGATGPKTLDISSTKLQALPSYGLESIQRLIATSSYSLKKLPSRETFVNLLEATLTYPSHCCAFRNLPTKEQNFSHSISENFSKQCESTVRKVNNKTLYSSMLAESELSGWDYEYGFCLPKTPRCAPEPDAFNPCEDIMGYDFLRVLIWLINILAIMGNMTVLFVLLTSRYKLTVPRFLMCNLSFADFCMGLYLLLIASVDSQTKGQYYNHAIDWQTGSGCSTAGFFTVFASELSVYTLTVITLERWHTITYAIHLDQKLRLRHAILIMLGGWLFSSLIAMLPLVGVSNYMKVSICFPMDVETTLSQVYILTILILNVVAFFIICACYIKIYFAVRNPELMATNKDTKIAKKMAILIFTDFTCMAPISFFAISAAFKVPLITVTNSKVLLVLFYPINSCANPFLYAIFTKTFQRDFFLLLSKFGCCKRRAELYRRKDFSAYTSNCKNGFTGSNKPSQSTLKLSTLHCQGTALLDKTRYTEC
Method: as §1, §2

[3] = target: T3, FSHR (Homo sapiens, UniProt P23945); assay: NanoBRET screen HiBiT-FSHR in HEK293; conditions: FSHR
T3 construct: purchased Promega (in-house HiBiT-GPCR construct library, NanoBRET)
T3 sequence (P23945 18-695): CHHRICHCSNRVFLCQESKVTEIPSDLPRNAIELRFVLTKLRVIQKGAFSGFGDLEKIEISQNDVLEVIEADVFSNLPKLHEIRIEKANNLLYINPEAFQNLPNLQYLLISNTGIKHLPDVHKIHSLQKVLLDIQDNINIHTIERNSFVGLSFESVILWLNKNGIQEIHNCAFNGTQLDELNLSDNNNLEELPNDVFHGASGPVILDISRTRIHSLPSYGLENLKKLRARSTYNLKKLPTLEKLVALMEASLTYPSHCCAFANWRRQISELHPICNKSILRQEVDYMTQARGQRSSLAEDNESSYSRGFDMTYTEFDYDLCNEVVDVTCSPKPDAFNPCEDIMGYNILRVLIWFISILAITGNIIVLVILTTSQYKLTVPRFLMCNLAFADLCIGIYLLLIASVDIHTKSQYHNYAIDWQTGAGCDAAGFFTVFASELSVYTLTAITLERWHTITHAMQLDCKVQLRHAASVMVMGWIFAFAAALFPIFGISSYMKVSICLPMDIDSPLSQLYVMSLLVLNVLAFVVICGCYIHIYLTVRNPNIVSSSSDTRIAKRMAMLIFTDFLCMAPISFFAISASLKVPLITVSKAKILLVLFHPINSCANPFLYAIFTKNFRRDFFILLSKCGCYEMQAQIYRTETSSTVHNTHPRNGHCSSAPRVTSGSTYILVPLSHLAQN
Method: as §1, §2

T1 sequence (P35346 whole entry): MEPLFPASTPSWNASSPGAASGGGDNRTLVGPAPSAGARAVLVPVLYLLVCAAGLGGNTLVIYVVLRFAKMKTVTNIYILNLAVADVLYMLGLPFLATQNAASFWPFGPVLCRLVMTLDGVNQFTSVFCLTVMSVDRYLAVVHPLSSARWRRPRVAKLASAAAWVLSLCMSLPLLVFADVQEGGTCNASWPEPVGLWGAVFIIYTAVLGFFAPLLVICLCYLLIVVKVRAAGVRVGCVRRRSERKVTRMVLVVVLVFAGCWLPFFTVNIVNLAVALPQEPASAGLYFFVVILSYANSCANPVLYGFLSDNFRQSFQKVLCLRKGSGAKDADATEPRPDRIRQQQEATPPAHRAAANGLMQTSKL

Structure (SMILES): O=C(CCc1ccc2n1[B-](F)(F)[N+]1=C(c3ccc[nH]3)C=CC1=C2)NCc1ccc(C(=O)NCCOCCOCCNCC(O)COc2cccc3ccccc23)cc1 (stereo not drawn) [Propranolol-3-NB590]
- NanoBRET Fold Response ([1]; 0.1μM): 1.01
- NanoBRET Fold Response ([1]; 1μM): 1.02
- NanoBRET Fold Response ([2]; 0.1μM): 1.04
- NanoBRET Fold Response ([2]; 1μM): 1.00
- NanoBRET Fold Response ([3]; 0.1μM): 0.98
- NanoBRET Fold Response ([3]; 1μM): 1.04

Structure (SMILES): O=C(CCc1ccc2n1[B-](F)(F)[N+]1=C(c3ccc[nH]3)C=CC1=C2)NCCOCCOCCNC(=O)OCCOCCN1CCN(C2=Nc3ccccc3Sc3ccccc32)CC1 [Quetiapine-a-2-NB590]
- NanoBRET Fold Response ([1]; tracer 0.1μM): 1.03
- NanoBRET Fold Response ([1]; tracer 1μM): 0.83
- NanoBRET Fold Response ([2]; tracer 0.1μM): 1.01
- NanoBRET Fold Response ([2]; tracer 1μM): 0.79
- NanoBRET Fold Response ([3]; tracer 0.1μM): 0.89
- NanoBRET Fold Response ([3]; tracer 1μM): 1.07

Structure (SMILES): Cc1nc2n(c(=O)c1CCN1CCC(c3noc4cc(F)ccc34)CC1)CCCC2OC(=O)NCCOCCOCCOCCOCCNC(=O)CCc1ccc2n1[B-](F)(F)[N+]1=C(c3ccc[nH]3)C=CC1=C2 (stereo not drawn) [Risperidone-2-NB590]
- NanoBRET Fold Response ([1]; tracer 0.1μM): 1.01
- NanoBRET Fold Response ([1]; tracer 1μM): 1.02
- NanoBRET Fold Response ([2]; tracer 0.1μM): 0.99
- NanoBRET Fold Response ([2]; tracer 1μM): 1.04
- NanoBRET Fold Response ([3]; tracer 0.1μM): 0.95
- NanoBRET Fold Response ([3]; tracer 1μM): 1.23

Structure (SMILES): CC(C)N(CC[C@H](c1ccccc1)c1cc(CCNC(=O)CCOCCOCCOCCOCCNC(=O)CCc2ccc3n2[B-](F)(F)[N+]2=C(c4ccc[nH]4)C=CC2=C3)ccc1O)C(C)C [Tolterodine-2-NB590]
- NanoBRET Fold Response ([1]; tracer 0.1μM): 0.93
- NanoBRET Fold Response ([1]; tracer 1μM): 1.04
- NanoBRET Fold Response ([2]; tracer 0.1μM): 1.08
- NanoBRET Fold Response ([2]; tracer 1μM): 1.02
- NanoBRET Fold Response ([3]; tracer 0.1μM): 0.78
- NanoBRET Fold Response ([3]; tracer 1μM): 1.08

Structure (SMILES): CC(C)N(CC[C@H](c1ccccc1)c1cc(CCNC(=O)c2ccc(CNC(=O)CCc3ccc4n3[B-](F)(F)[N+]3=C(c5ccc[nH]5)C=CC3=C4)cc2)ccc1O)C(C)C [Tolterodine-BZ-NB590]
- NanoBRET Fold Response ([1]; tracer 0.1μM): 1.08
- NanoBRET Fold Response ([1]; tracer 1μM): 1.04
- NanoBRET Fold Response ([2]; tracer 0.1μM): 0.98
- NanoBRET Fold Response ([2]; tracer 1μM): 1.05
- NanoBRET Fold Response ([3]; tracer 0.1μM): 1.08
- NanoBRET Fold Response ([3]; tracer 1μM): 1.09

Structure (SMILES): CCCn1c(=O)c2[nH]c(-c3ccc(OCC(=O)NCCNC(=O)CCOCCNC(=O)c4ccc(CNC(=O)CCc5ccc6n5[B-](F)(F)[N+]5=C(c7ccc[nH]7)C=CC5=C6)cc4)cc3)nc2n(CCC)c1=O [XAC-3-NB590]
- NanoBRET Fold Response ([1]; tracer 0.1μM): 0.99
- NanoBRET Fold Response ([1]; tracer 1μM): 1.01
- NanoBRET Fold Response ([2]; tracer 0.1μM): 1.01
- NanoBRET Fold Response ([2]; tracer 1μM): 1.00
- NanoBRET Fold Response ([3]; tracer 0.1μM): 1.18
- NanoBRET Fold Response ([3]; tracer 1μM): 1.04
